# According to paper PMC8745601 (International Journal of Molecular Sciences, 2021):
# Residue numbers refer to the chain shown, from its start. Where two headings read alike, the source gives them in different places.
# Tests used:
# [1] = target: T1, OCT1 (Homo sapiens, UniProt O15245); details: MDCKII-OCT1; doxorubicin 0–100 µmol/L; 3 min; mean ± SD
# T1 sequence (O15245 1-554): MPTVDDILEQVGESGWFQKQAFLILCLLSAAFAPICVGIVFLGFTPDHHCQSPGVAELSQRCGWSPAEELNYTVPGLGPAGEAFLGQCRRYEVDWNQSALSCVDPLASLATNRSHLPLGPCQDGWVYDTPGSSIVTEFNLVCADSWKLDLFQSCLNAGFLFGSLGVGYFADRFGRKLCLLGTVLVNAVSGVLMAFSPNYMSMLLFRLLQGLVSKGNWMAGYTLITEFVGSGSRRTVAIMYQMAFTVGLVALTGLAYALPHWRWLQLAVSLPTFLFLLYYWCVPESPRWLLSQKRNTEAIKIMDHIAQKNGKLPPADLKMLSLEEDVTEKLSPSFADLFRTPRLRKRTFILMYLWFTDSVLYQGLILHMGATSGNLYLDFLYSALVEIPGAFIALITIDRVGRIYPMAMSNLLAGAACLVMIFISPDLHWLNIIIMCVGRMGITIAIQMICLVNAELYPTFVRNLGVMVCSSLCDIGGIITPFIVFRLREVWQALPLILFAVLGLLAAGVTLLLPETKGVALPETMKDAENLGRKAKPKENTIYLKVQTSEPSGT
# Experimental: (§1) Cellular uptake studies: For all transport studies, cells were seeded in 24-well plates and incubated in a full growth medium at an initial density of 200,000 cells/well for 3 days. Before starting each transport experiment, cells were washed with a pre-warmed (37 °C) incubation buffer [64]. […] Protein concentration of whole cell lysate was determined to quantify cell density after each experiment using the BCA assay according to the manufacturer’s instructions (Pierce, Rockford, IL, USA).
# (§2) Statistical evaluation: All experiments were performed at least three times unless otherwise noted. The OATP1A2*1–*3 and OCT1-3 net uptake was obtained by subtracting the uptake into wild-type cells from that of the transporter-transfected cells. Km and Vmax were assessed using Prism 5.01 (GraphPad Software, San Diego, CA, USA). The differences in the doxorubcin uptake in OATP1A2*1–*3 and in OCT1-3 transfected cells were adjusted to the membranous transporter protein levels in the whole cell lysate. Km and Vmax are presented as arithmetic means ± standard deviation.
# [2] = during chemotherapy, no reference given, cited from earlier work
# [3] = cumulative dose 450–600 mg/m^2; cited from earlier work
# [4] = target: T2, OATP1A2*2 (Homo sapiens, UniProt P46721, I13T); test: in vitro
# T2 sequence (P46721 1-670 I13T): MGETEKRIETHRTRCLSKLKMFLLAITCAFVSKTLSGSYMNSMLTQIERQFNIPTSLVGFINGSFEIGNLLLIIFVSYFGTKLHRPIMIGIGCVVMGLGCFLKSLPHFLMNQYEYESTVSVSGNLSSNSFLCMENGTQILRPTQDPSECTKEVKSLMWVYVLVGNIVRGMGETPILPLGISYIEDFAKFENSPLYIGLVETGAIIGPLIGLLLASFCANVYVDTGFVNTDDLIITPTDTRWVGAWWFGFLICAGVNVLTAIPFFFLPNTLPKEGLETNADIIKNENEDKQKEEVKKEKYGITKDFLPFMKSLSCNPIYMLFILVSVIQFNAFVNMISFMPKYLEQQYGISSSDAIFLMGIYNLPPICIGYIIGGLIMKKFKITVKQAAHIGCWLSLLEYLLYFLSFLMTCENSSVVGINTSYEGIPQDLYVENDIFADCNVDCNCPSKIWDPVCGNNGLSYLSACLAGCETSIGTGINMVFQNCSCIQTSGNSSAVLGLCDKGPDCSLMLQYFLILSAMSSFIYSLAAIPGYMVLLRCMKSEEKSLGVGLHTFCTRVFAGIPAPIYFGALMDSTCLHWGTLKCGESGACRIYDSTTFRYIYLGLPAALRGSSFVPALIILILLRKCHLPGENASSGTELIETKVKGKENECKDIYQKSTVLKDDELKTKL
# Experimental: as §1
# (§3) Protein abundance of OATP1A2*1–*3 and OCT1–3 were measured by mass spectrometry-based targeted proteomics using a validated LC-MS/MS method as recently described [65].
# (§4) 200 μL of each cell lysate sample was mixed with 25 μL internal standard (5 µg/mL daunorubicin), 25 μL citric acid (1%), and 400 μL ice-cold acetonitrile for protein precipitation. […] The clear supernatant was transferred to HPLC vials. The measurement and quantitative evaluation were carried out using the LC-MS/MS system QTRAP 4000® (AB SCIEX, Darmstadt, Germany) and the Software Analyst® 1.4 (Applied Biosystems, Darmstadt, Germany).
# (§5) Statistical evaluation: All experiments were performed at least three times unless otherwise noted. The OATP1A2*1–*3 and OCT1-3 net uptake was obtained by subtracting the uptake into wild-type cells from that of the transporter-transfected cells. […]
# [5] = target: T3, OATP1A2*3 (Homo sapiens, UniProt P46721, E172D); test: in vitro
# T3 sequence (P46721 1-670 E172D): T2 sequence (P46721 1-670 I13T) with T13I, E172D
# Experimental: as §1, §3, §4, §5
# [6] = target: T1, OCT1; details: OCT1 affinity to doxorubicin; cited from earlier work
# [7] = target: T4, OCT3 (Homo sapiens, UniProt O75751); test: Doxorubicin uptake into MDCKII cells stably expressing OCT3
# T4 sequence (O75751 1-556): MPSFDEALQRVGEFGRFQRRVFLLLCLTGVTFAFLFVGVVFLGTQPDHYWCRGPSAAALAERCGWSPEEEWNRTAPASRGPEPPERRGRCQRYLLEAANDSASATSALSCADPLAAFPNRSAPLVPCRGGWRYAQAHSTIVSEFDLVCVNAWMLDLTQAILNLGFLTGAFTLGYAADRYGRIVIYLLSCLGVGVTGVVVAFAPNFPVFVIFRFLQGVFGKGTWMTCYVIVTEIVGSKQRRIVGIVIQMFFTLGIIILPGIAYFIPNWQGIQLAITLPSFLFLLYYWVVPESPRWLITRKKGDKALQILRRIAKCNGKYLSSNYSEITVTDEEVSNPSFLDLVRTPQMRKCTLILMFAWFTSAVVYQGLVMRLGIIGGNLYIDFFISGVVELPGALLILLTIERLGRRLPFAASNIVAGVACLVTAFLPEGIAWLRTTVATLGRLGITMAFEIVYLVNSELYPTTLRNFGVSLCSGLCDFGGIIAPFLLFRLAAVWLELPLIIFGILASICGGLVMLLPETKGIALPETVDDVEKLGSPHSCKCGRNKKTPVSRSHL
# Experimental: as §1, §2
smiles,measurement,setting,value
"COc1cccc2c1C(=O)c1c(O)c3c(c(O)c1C2=O)C[C@@](O)(C(=O)CO)C[C@@H]3O[C@H]1C[C@H](N)[C@H](O)[C@H](C)O1 [doxorubicin, Doxorubicin]",Vmax,[1],19.4 ± 3.78 pmol/mg/min
same,plasma concentrations of doxorubicin,[2]; conversion of 600 ng/mL,~ 1 µmol/L
same,plasma concentrations of doxorubicin,[2],up to 600 ng/mL
same,risk of congestive heart failure,[3],3–18%
same,Km,[4]; HEK293 cells stably expressing OATP1A2*2,5.84 ± 3.95 µM
same,microsomal CLint,[4]; other cell line,1.39 ± 0.65 µL/min/mg
same,Km,[5]; HEK293 cells stably expressing OATP1A2*3,5.94 ± 3.07 µM
same,microsomal CLint,[5]; other cell line,2.32 ± 0.99 µL/min/mg
same,Km,[6],~5 µM
same,Vmax,"[7]; MDCKII-OCT3, doxorubicin 0–100 µmol/L, 3 min, mean ± SD",12.9 ± 3.60 pmol/mg/min
same,microsomal CLint at 3 min,"[7]; human, mdck",0.99 ± 0.33 µL/min/mg
